Results reported in US8501778B2, “Aralkyl piperidine derivatives and their uses as antalgic or ataractic agent” (priority 2008, dated 2013).
Structures can show the parent of a compound that is named as a salt. Where two headings read alike, the source gives them in different places.

Tests used:
Kunming mice [1] = experiment: Acetic Acid Twisting Method in mice (antalgic effect); assay type: in vivo; conditions: Mus musculus
Kunming mice [2] = experiment: Hot Plate Method in mice (antalgic effect); assay type: in vivo; conditions: Mus musculus, read-out: Increasing rate of pain threshold (%)
[3] = sc, 10 mg/kg, subcutaneous injection at neck, mice, read-out: twisting response inhibiting rate (%)
[4] = sc, 20 mg/kg, subcutaneous injection at neck, mice, read-out: twisting response inhibiting rate (%)
[5] = sc, 40 mg/kg, subcutaneous injection at neck, mice, read-out: twisting response inhibiting rate (%)
[6] = sc, subcutaneous injection at neck, 1 hour after dosing, hot plate 55.5° C.
[7] = po, 10 mg/kg, gavage administration, mice, read-out: twisting response inhibiting rate (%)
[8] = po, 20 mg/kg, gavage administration, mice, read-out: twisting response inhibiting rate (%)
[9] = po, 40 mg/kg, gavage administration, mice, read-out: twisting response inhibiting rate (%)
[10] = po, 1 h, gavage administration, hot plate
[11] = sc, read-out: twisting response inhibiting rate (%)

Compound	inhibition in vivo at 20 mg/kg (Kunming mice [1]; sc, read-out: antalgic) [%]	inhibition in vivo at 10 mg/kg (Kunming mice [1]; [3]) [%]	inhibition in vivo at 20 mg/kg (Kunming mice [1]; [4]) [%]	inhibition in vivo at 40 mg/kg (Kunming mice [1]; [5]) [%]	change in vivo at 10 mg/kg (Kunming mice [2]; [6]) [%]	change in vivo at 20 mg/kg (Kunming mice [2]; [6]) [%]	change in vivo at 40 mg/kg (Kunming mice [2]; [6]) [%]	inhibition in vivo at 10 mg/kg (Kunming mice [1]; [7]) [%]	inhibition in vivo at 20 mg/kg (Kunming mice [1]; [8]) [%]	inhibition in vivo at 40 mg/kg (Kunming mice [1]; [9]) [%]	change in vivo at 10 mg/kg (Kunming mice [2]; [10]) [%]	change in vivo at 20 mg/kg (Kunming mice [2]; [10]) [%]	inhibition in vivo at 10 mg/kg (Kunming mice [1]; [11]) [%]	inhibition in vivo at 20 mg/kg (Kunming mice [1]; [11]) [%]	inhibition in vivo at 40 mg/kg (Kunming mice [1]; [11]) [%]	change in vivo at 40 mg/kg (Kunming mice [2]; [10]) [%]
O=C(CC1(O)CCN(Cc2ccc(F)cc2)CC1)c1ccccc1 [III-3, N-p-fluorobenzyl-4-benzoylmethyl-4-piperidinol hydrochloride]	76	69.4	77.2	71.5	11.9	18.5	29.4									
O=C(CC1(O)CCN(C(c2ccccc2)c2ccccc2)CC1)c1ccccc1 [III-7, N-diphenylmethyl-4-benzoylmethyl-4-piperidinol hydrochloride]	45							25.8	38	44.2	82.8	126				
O=C(CC1(O)CCN(Cc2ccc([N+](=O)[O-])cc2)CC1)c1ccccc1 [III-4, N-p-nitrobenzyl-4-benzoylmethyl-4-piperidinol hydrochloride]	100				19.8	6.47	15.9						100	100	100	
O=C(CC1(O)CCN(Cc2ccccc2)CC1)c1ccccc1 [III-1, N-benzyl-4-benzoylmethyl-4-piperidinol hydrochloride]	62	73.3	59.4	91.1	99.7	89	148									
COc1ccc(C(C)N2CCC(F)(CC(=O)c3ccccc3)CC2)cc1 (stereo not shown) [IX-1, N-(1-(p-methoxyphenyl)ethyl)-4-benzoylmethyl-4-fluoropiperidine hydrochloride]	76	60.4	68.7	81	86.4	109	156									
OC(CC1(O)CCN(C(c2ccccc2)c2ccccc2)CC1)c1ccccc1 (stereo not shown) [Compound V-3, N-diphenylmethyl-4-(2-hydroxy-2-phenylethyl)-4-piperidinol hydrochloride]	84							60.6	49.8	68.1	64.1	86.8				136
CC(c1ccc(N2CCOCC2)cc1)N1CCC(Cl)(CC(=O)c2ccccc2)CC1 (stereo not shown) [IX-7, N-(1-(4-morpholinophenyl)ethyl)-4-benzoylmethyl-4-chloropiperidine hydrochloride]	72	66	60.3	76.4	79.5	101	130									
Nc1ccc(CN2CCC(O)(CC(=O)c3ccccc3)CC2)cc1 [III-5, N-p-aminobenzyl-4-benzoylmethyl-4-piperidinol hydrochloride]	100				58.3	75.6	190						100	100	100	
